# Test results: PMC10953011, “Oxygen‐insensitive nitroreductase E. coli NfsA, but not NfsB, is inhibited by fumarate” (Proteins, 2022)
# Key:
# NfsA [1] = biological target: T1, NfsA (Escherichia coli, UniProt P17117); experiment: X-ray crystal structure ([…] Å); steady-state inhibition kinetics with nitrofurazone and NADPH; format: biochemical; parameters: untagged full-length, 240 residues, dimer
# T1 sequence (P17117 1-240): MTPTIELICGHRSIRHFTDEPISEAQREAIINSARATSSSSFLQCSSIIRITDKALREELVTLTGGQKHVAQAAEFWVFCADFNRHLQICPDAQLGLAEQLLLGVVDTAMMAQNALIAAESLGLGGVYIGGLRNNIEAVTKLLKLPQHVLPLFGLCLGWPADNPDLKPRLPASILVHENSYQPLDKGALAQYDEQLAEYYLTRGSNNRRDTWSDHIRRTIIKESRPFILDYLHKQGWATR
# NfsA [2] = biological target: T1, NfsA; experiment: steady-state inhibition kinetics with nitrofurazone and NADPH, […] nm; format: biochemical; parameters: untagged full-length
SMILES,Ki (NfsA [1]),Ki (NfsA [2])
O=C(O)/C=C/C(=O)O [fumarate],145 ± 28 µM,
O=C(O)CCC(=O)O [succinate],,4300 ± 600 µM
